Holding throughout (test): relative viability (nuclei count vs DMSO), 5 days (fraction); higher = more cells survive
Compound in test [1]: C[C@@H](C(=O)N[C@@H](C1CCCCC1)C(=O)N2CCC[C@H]2C(=O)N[C@@H]3[C@@H](CC4=CC=CC=C34)OCC#CC#CCO[C@@H]5CC6=CC=CC=C6[C@@H]5NC(=O)[C@@H]7CCCN7C(=O)[C@H](C8CCCCC8)NC(=O)[C@H](C)NC)NC [AZD5582] + Cc1nc(Nc2ncc(C(=O)Nc3c(C)cccc3Cl)s2)cc(N2CCN(CCO)CC2)n1 [Dasatinib] (partner 0.075 µM)
The gist of the method: (§1)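 Lung cancer cell lines were seeded in 1536-well plates and dosed by pin tool the next day, with either a single drug or a fixed anchor-drug dose combined with five library-drug doses (not always all listed) spaced in √10 steps. Five days later, one step fixed the cells and stained their nuclei (final 0.05% Triton X-100, 1% formaldehyde, 1 ug/ml Hoechst), and nuclei were counted on 4× images. Relative viability is the nuclei count in treated wells divided by the count in vehicle wells, and each value is the median of duplicate plates.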

Compound in test [2]: C[C@@H](C(=O)N[C@@H](C1CCCCC1)C(=O)N2CCC[C@H]2C(=O)N[C@@H]3[C@@H](CC4=CC=CC=C34)OCC#CC#CCO[C@@H]5CC6=CC=CC=C6[C@@H]5NC(=O)[C@@H]7CCCN7C(=O)[C@H](C8CCCCC8)NC(=O)[C@H](C)NC)NC [AZD5582] + C[C@]1(O)C[C@@H](c2nc(-c3ccc4ccc(-c5ccccc5)nc4c3)c3c(N)nccn32)C1 [Linsitinib] (partner 1 µM)
The gist of the method:
as §1

Compound in test [3]: C[C@@H](C(=O)N[C@@H](C1CCCCC1)C(=O)N2CCC[C@H]2C(=O)N[C@@H]3[C@@H](CC4=CC=CC=C34)OCC#CC#CCO[C@@H]5CC6=CC=CC=C6[C@@H]5NC(=O)[C@@H]7CCCN7C(=O)[C@H](C8CCCCC8)NC(=O)[C@H](C)NC)NC [AZD5582] + CC1(C)CCC(c2ccc(Cl)cc2)=C(CN2CCN(c3ccc(C(=O)NS(=O)(=O)c4ccc(N[C@H](CCN5CCOCC5)CSc5ccccc5)c(S(=O)(=O)C(F)(F)F)c4)cc3)CC2)C1 [Navitoclax] (partner 0.5 µM)
The gist of the method: as §1

Compound in test [4]: C[C@@H](C(=O)N[C@@H](C1CCCCC1)C(=O)N2CCC[C@H]2C(=O)N[C@@H]3[C@@H](CC4=CC=CC=C34)OCC#CC#CCO[C@@H]5CC6=CC=CC=C6[C@@H]5NC(=O)[C@@H]7CCCN7C(=O)[C@H](C8CCCCC8)NC(=O)[C@H](C)NC)NC [AZD5582] + CC(=O)c1c(C)c2cnc(Nc3ccc(N4CCNCC4)cn3)nc2n(C2CCCC2)c1=O [Palbociclib] (partner 0.5 µM)
The method, boiled down:
as §1

Compound in test [5]: C[C@@H](C(=O)N[C@@H](C1CCCCC1)C(=O)N2CCC[C@H]2C(=O)N[C@@H]3[C@@H](CC4=CC=CC=C34)OCC#CC#CCO[C@@H]5CC6=CC=CC=C6[C@@H]5NC(=O)[C@@H]7CCCN7C(=O)[C@H](C8CCCCC8)NC(=O)[C@H](C)NC)NC [AZD5582] + CC(=O)Nc1cccc(-n2c(=O)n(C3CC3)c(=O)c3c(Nc4ccc(I)cc4F)n(C)c(=O)c(C)c32)c1 [Trametinib] (partner 0.02 µM)
The method, boiled down: as §1

Consider NCI-H1975, for which the relative viability in test [1] (first compound 0.001581 µM) came out at 0.322; in test [1] (first compound 0.005 µM), 0.447; in test [1] (first compound 0.01581 µM) it was 0.428; in test [1] (first compound 0.05 µM), 0.408; in test [2] (first compound 0.001581 µM) it was 1.08; in test [2] (first compound 0.005 µM), 1.04. Also, the relative viability in test [2] (first compound 0.01581 µM) was 1.01; in test [2] (first compound 0.05 µM) it was 1.25; in test [3] (first compound 0.001581 µM), 1.12; in test [3] (first compound 0.005 µM), 1.19; in test [3] (first compound 0.01581 µM), 1.18; in test [3] (first compound 0.05 µM), 1.2. Further, the relative viability was 0.547 in test [4] (first compound 0.001581 µM); 0.728 in test [4] (first compound 0.005 µM); 0.548 in test [4] (first compound 0.01581 µM); 0.52 in test [4] (first compound 0.05 µM); 0.444 in test [5] (first compound 0.001581 µM); 0.434 in test [5] (first compound 0.005 µM). In addition, the results for the relative viability in test [5] (first compound 0.01581 µM) and in test [5] (first compound 0.05 µM) were 0.448 and 0.322, respectively.

Regarding NCI-H441, the relative viability turned out to be 0.591 in test [1] (first compound 0.001581 µM); 0.726 in test [1] (first compound 0.005 µM); 0.508 in test [1] (first compound 0.05 µM); 0.453 in test [2] (first compound 0.001581 µM); 0.53 in test [2] (first compound 0.005 µM); 0.454 in test [2] (first compound 0.01581 µM). In addition, the relative viability in test [2] (first compound 0.05 µM) is 0.389; in test [3] (first compound 0.001581 µM), 0.639; in test [3] (first compound 0.005 µM) it was 0.543; in test [3] (first compound 0.01581 µM), 0.453; in test [3] (first compound 0.05 µM) it was 0.518; in test [4] (first compound 0.001581 µM) it was 0.232. Moreover, the relative viability in test [4] (first compound 0.005 µM) stood at 0.224; in test [4] (first compound 0.01581 µM), 0.206; in test [4] (first compound 0.05 µM) it was 0.187; in test [5] (first compound 0.001581 µM) it was 0.508; in test [5] (first compound 0.005 µM), 0.636; in test [5] (first compound 0.01581 µM), 0.385. The relative viability in test [5] (first compound 0.05 µM) was found to be 0.34.

In the case of NCI-H23, the relative viability in test [1] (first compound 0.001581 µM) was 0.605; in test [1] (first compound 0.005 µM), 0.644; in test [1] (first compound 0.01581 µM), 0.539; in test [1] (first compound 0.05 µM), 0.269; in test [2] (first compound 0.001581 µM), 0.621; in test [2] (first compound 0.005 µM), 0.421. The relative viability was 0.529 in test [2] (first compound 0.01581 µM); 0.418 in test [2] (first compound 0.05 µM); 0.594 in test [3] (first compound 0.001581 µM); 0.512 in test [3] (first compound 0.005 µM); 0.721 in test [3] (first compound 0.01581 µM); 0.778 in test [3] (first compound 0.05 µM). Also, the relative viability in test [4] (first compound 0.001581 µM) was 0.393; in test [4] (first compound 0.005 µM), 0.374; in test [4] (first compound 0.01581 µM), 0.419; in test [4] (first compound 0.05 µM), 0.305; in test [5] (first compound 0.001581 µM), 0.31; in test [5] (first compound 0.005 µM) it was 0.37. The relative viability in test [5] (first compound 0.01581 µM) turned out to be 0.359; in test [5] (first compound 0.05 µM), 0.319.

As for HARA, the relative viability in test [1] (first compound 0.001581 µM) worked out at 0.26; in test [1] (first compound 0.005 µM), 0.299; in test [1] (first compound 0.01581 µM), 0.294; in test [1] (first compound 0.05 µM), 0.124; in test [2] (first compound 0.001581 µM), 1.01; in test [2] (first compound 0.005 µM) it was 0.897. In addition, the relative viability was found to be 0.951 in test [2] (first compound 0.01581 µM); 0.867 in test [2] (first compound 0.05 µM); 1.11 in test [3] (first compound 0.001581 µM); 1.07 in test [3] (first compound 0.005 µM); 1.14 in test [3] (first compound 0.01581 µM); 1.12 in test [3] (first compound 0.05 µM). In addition, the relative viability in test [4] (first compound 0.001581 µM) came to 0.257; in test [4] (first compound 0.005 µM) it was 0.275; in test [4] (first compound 0.01581 µM) it was 0.233; in test [4] (first compound 0.05 µM), 0.318; in test [5] (first compound 0.001581 µM), 0.464; in test [5] (first compound 0.005 µM), 0.719. The results for the relative viability in test [5] (first compound 0.01581 µM) and in test [5] (first compound 0.05 µM) were 0.747 and 0.976, respectively.

The record behind these values is the supplement of paper PMC10307832.
